Measured values taken from the supplement of paper PMC10307832.

Columns and labels:
Experiment in all cases: relative viability (nuclei count vs DMSO), 5 days (fraction); higher = more cells survive
[1] = test system: NCI-H1651
How it was run: (§1)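 One day after seeding in 1536-well plates, lung cancer cell lines were dosed by pin tool. Dosing was either single-drug or a fixed anchor-drug dose plus five library-drug doses (not always all listed) in √10 steps. After 5 days, nuclei were stained in one fix-and-stain step and counted on 4× images, and relative viability is the nuclei count of treated wells over that of vehicle wells, given as the median of duplicate plates.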

[2] = test system: NCI-H1623
How it was run: as §1

[3] = test system: SK-MES-1
How it was run: as §1

[4] = test system: SW 1573
How it was run: as §1

[5] = test system: ChaGo-K-1
How it was run: as §1

[6] = test system: COR-L23
How it was run: as §1

[7] = test system: NCI-H1437
How it was run: as §1

[8] = test system: ABC-1
How it was run: as §1

Structure (SMILES): CC(=O)O[C@@]12CO[C@@H]1C[C@H](O)[C@@]1(C)C(=O)[C@H](O)C3=C(C)[C@@H](OC(=O)[C@H](O)[C@@H](NC(=O)OC(C)(C)C)c4ccccc4)C[C@@](O)([C@@H](OC(=O)c4ccccc4)[C@H]21)C3(C)C [Docetaxel] + Cc1nc(Nc2ncc(C(=O)Nc3c(C)cccc3Cl)s2)cc(N2CCN(CCO)CC2)n1 [Dasatinib] (partner 0.075 µM)
- relative viability ([1]; first compound 0.0002 µM): 0.338
- relative viability ([1]; first compound 0.000632 µM): 0.236
- relative viability ([1]; first compound 0.002 µM): 0.119
- relative viability ([1]; first compound 0.006325 µM): 0.0789
- relative viability ([1]; first compound 0.02 µM): 0.0711
- relative viability ([2]; first compound 0.0002 µM): 0.555
- relative viability ([2]; first compound 0.000632 µM): 0.529
- relative viability ([2]; first compound 0.002 µM): 0.472
- relative viability ([2]; first compound 0.006325 µM): 0.313
- relative viability ([2]; first compound 0.02 µM): 0.239
- relative viability ([3]; first compound 0.0002 µM): 0.326
- relative viability ([3]; first compound 0.000632 µM): 0.316
- relative viability ([3]; first compound 0.002 µM): 0.19
- relative viability ([3]; first compound 0.006325 µM): 0.167
- relative viability ([3]; first compound 0.02 µM): 0.072
- relative viability ([4]; first compound 0.0002 µM): 0.307
- relative viability ([4]; first compound 0.000632 µM): 0.19
- relative viability ([4]; first compound 0.002 µM): 0.122
- relative viability ([4]; first compound 0.02 µM): 0.0658
- relative viability ([5]; first compound 0.0002 µM): 0.486
- relative viability ([5]; first compound 0.000632 µM): 0.429
- relative viability ([5]; first compound 0.002 µM): 0.404
- relative viability ([5]; first compound 0.006325 µM): 0.257
- relative viability ([5]; first compound 0.02 µM): 0.132
- relative viability ([6]; first compound 0.0002 µM): 0.458
- relative viability ([6]; first compound 0.000632 µM): 0.406
- relative viability ([6]; first compound 0.002 µM): 0.226
- relative viability ([6]; first compound 0.006325 µM): 0.112
- relative viability ([6]; first compound 0.02 µM): 0.0725
- relative viability ([7]; first compound 0.0002 µM): 0.339
- relative viability ([7]; first compound 0.000632 µM): 0.259
- relative viability ([7]; first compound 0.002 µM): 0.268
- relative viability ([7]; first compound 0.006325 µM): 0.174
- relative viability ([7]; first compound 0.02 µM): 0.122
- relative viability ([8]; first compound 0.0002 µM): 0.533
- relative viability ([8]; first compound 0.000632 µM): 0.434
- relative viability ([8]; first compound 0.002 µM): 0.388
- relative viability ([8]; first compound 0.006325 µM): 0.36
- relative viability ([8]; first compound 0.02 µM): 0.252
